Assay [1] concerns DNFB-induced dermatitis in BALB/c male mice. Put plainly: Mouse dermatitis model (DNFB-induced auricle swelling). It counts as in vivo. Conditions: 0.3 mg/mL solution 10 mL/kg orally 8 hours after DNFB induction, auricle thickness on following day. The procedure: The test compound was added to a 0.5% carboxymethyl cellulose solution so as to have the final concentration of 0.3 mg/mL, thereby preparing an administration solution containing the test compound. Hapten used was 2,4-dinitrofluorobenzene (DNFB, Wako Pure Chemical Industries).
Twenty-five (25) μL of a solution of DNFB diluted to 0.4% with a mixed solvent of acetone and an olive oil in a volume ratio of 2:1 was applied twice to the shaved abdominal region of BALB/c male mice (Charles River), 6-10 weeks of age, over a period of 2 days to create the sensitization. Four days after the sensitization, on the first day, 20 μL of a solution of DNFB diluted to 0.2% with a mixed solvent of acetone and an olive oil in a volume ratio of 2:1 was applied to the right auricle of the mouse to induce dermatitis. Eight hours after the induction of dermatitis, the administration solution containing the test compound (10 mL/kg) was orally administered to the mouse. On the day following the induction of dermatitis, the right auricle thickness of the mouse was measured using a thickness gauge to evaluate the action of the test compound.
Note that Reference Example 1 in Table 5 is Compound (XIX).

Assay [2] relates to mite antigen-induced dermatitis in NC/NgaTndCrlj mice. In words: Model for mite antigen-induced atopic dermatitis (dermatitis score). The format is in vivo, mouse. More on the design: key: sum of 5 findings, each 0 = none, 1 mild, 2 moderate, 3 severe. The procedure:
A 4 w/v % SDS solution (0.15 mL/mouse) was first applied to the dorsal region and auricle region of 8-week old male NC/NgaTndCrlj mice (Charles River Laboratories Japan, Inc.) under isoflurane inhalation anesthesia. About 3 hours after the application of the 4 w/v % SDS solution (0.15 mL/mouse), a 1 mL-polypropylene disposable syringe (Terumo Corporation) was filled with Bio stir AD (Biostir Inc.) as a mite antigen ointment which was applied to the dorsal region and auricle region (0.1 mL/mouse). Every 2 or 3 days, the 4 w/v % SDS solution (0.15 mL/mouse) and Biostir AD were applied to a total of 8 times including the initial application by the same method to induce dermatitis. After inducing the dermatitis, the conditions of the skin at the application sites (assessments other than itching behavior) were observed and the dermatitis findings 1) to 5) described below were scored based on the evaluation criteria for the clinical symptoms of human atopic dermatitis. Note that the scoring of the dermatitis findings 1) to 5) has 0 for no symptom, 1 for mild, 2 for moderate and 3 for severe. The dermatitis score of each individual is the total of the dermatitis findings 1) to 5). Grouping (15 mice per group) was carried out randomly so that each group had substantially the same (no statistically significant difference) average dermatitis score (total) and average body weight. For 14 days from the day on which the grouping was carried out, an administration solution containing the test compound (10 mL/kg) was orally administered to the mouse once a day (14 times in total). The administration solution was a 0.5% carboxymethyl cellulose solution containing 10 mmol/L sodium hydroxide and made up into three types of solution having test compound concentrations of 0.3, 1 or 3 mg/mL.

For assay [3], the system named is OXA-induced enteritis in BALB/c male mice. In words: Model mouse for enteritis (OXA-induced, bowel length). The format is in vivo. The settings on record: po, 48 h, 0.1 mg/mL solution 10 mL/kg orally twice (1 hour before and day after OXA induction), length of colon and rectum two days after induction, read-out: Inhibitory activity on bowel shortening (%). Here is the method:
Generally, the bowel length is known to be shorter during enteritis (Maxwell, J. R. et al. Curr. Protoc. Pharmacol. Chapter 5: Unit 5.58, 2009). The bowel length in an enteritis model was measured to evaluate the effect of the test compound.
The test compound was added to a 0.5% carboxymethyl cellulose solution so as to have a final concentration of 0.1 mg/mL, thereby preparing an administration solution containing the test compound. Hapten used was 4-ethoxymethylene-2-phenyloxazol-5-one (OXA, SIGMA-ALDRICH).
One hundred (100) μL of a solution of OXA diluted to 0.3% with ethanol was applied to the shaved abdominal region of BALB/c male mice (Charles River), 6-10 weeks of age, to create the sensitization. Five days after the sensitization, OXA was intrarectally administered to induce an enteritis reaction. More specifically, a syringe equipped with a sonde for oral administration was inserted into the anus of the mouse anesthetized by the inhalation of isoflurane at a concentration of 4-5% and 50 μL of the OXA solution adjusted to 1% with a solvent of 50% ethanol/50% distilled water was administered into the rectum.
One hour before and on the day following the induction of enteritis, the administration solution containing the test compound (10 mL/kg) was orally administered twice in total to the mice. Two days after the induction of enteritis, the mice were euthanized by cervical dislocation and subsequently the cecum to the anus was collected to measure the combined length of the colon and the rectum using a ruler, thereby evaluating the action of the test compound.
Note that Reference Example 1 in Table 6 is Compound (XIX).

Consider `CO[C@H]1CN(C(=O)c2cc3nc(-c4cc(F)c(Cl)c(F)c4)cc(N(C)c4c(C)cccc4F)n3n2)CC[C@H]1CC(=O)O` [Example 10, 2-((3R,4S)-1-(5-(4-chloro-3,5-difluorophenyl)-7-((2-fluoro-6-methylphenyl)(methyl)amino)pyrazolo[1,5-a]pyrimidine-2-carbonyl)-3-methoxypiperidin-4-yl)acetic acid], for which, in assay [1], the “Inhibitory activity on auricle swelling (%)” value is recorded as 52.9%. Moreover, the “Dermatitis score (total of findings 1 to 5)” value (from here on “Dermatitis score”) is given as 9.1 ± 0.5 in assay [2] (3 mg/kg orally once a day, 4 days after starting administration); 8.6 ± 0.7 in assay [2] (3 mg/kg orally once a day, 7 days after starting administration); 6.7 ± 0.7 in assay [2] (3 mg/kg orally once a day, 11 days after starting administration); 5.4 ± 0.7 in assay [2] (3 mg/kg orally once a day, 14 days after starting administration); 9.7 ± 0.5 in assay [2] (3 mg/kg orally once a day, day 0 (day of grouping)); 8.6 ± 0.9 in assay [2] (10 mg/kg orally once a day, 4 days after starting administration). The “Dermatitis score” value in assay [2] (10 mg/kg orally once a day, 7 days after starting administration) turned out to be 7.7 ± 0.8; in assay [2] (10 mg/kg orally once a day, 11 days after starting administration), 7.1 ± 1.0; in assay [2] (10 mg/kg orally once a day, 14 days after starting administration), 5.9 ± 0.9; in assay [2] (10 mg/kg orally once a day, day 0 (day of grouping)), 9.3 ± 0.6; in assay [2] (30 mg/kg orally once a day, 4 days after starting administration), 8.7 ± 0.7; in assay [2] (30 mg/kg orally once a day, 7 days after starting administration), 7.8 ± 0.8. Besides, the “Dermatitis score” value in assay [2] (30 mg/kg orally once a day, 11 days after starting administration) turned out to be 6.5 ± 0.8; in assay [2] (30 mg/kg orally once a day, 14 days after starting administration), 5.0 ± 0.8; in assay [2] (30 mg/kg orally once a day, day 0 (day of grouping)), 9.3 ± 0.6.
With `C[C@@H](c1ccccc1)N(C)c1cc(-c2cc(F)c(F)c(F)c2)nc2cc(C(=O)N3CCC(CC(=O)O)CC3)nn12` [Reference Example 1, (S)-2-(1-(7-(methyl(1-phenylethyl)amino)-5-(3,4,5-trifluorophenyl)pyrazolo[1,5-a]pyrimidine-2-carbonyl)piperidin-4-yl)acetic acid, reference compound], the inhibition in vivo at 100 µg/mL, 1 mg/kg in assay [3] came out at 37.3%. Also, the “Inhibitory activity on auricle swelling (%)” value in assay [1] is reported as 22.3%.

Values taken from patent US10227349B2, “Pyrazolo[1,5-a]pyrimidine compound” (Eisai R&D Management Co., Ltd., priority 2016, dated 2019).
